Data set [1] deals with Lewis lung carcinoma (LLC). Put plainly: LLC subcutaneous tumor-growth model. In kind it is in vivo, mice. As to the method:
For evaluating subcutaneous tumor growth, LLC or B16 cells (5 × 10^5) in 50 μl PBS were inoculated subcutaneously into the right flanks of mice. Mice were euthanized when their tumor volumes reached 4000 mm^3. Tumor sizes were measured twice a week using calipers. Tumor volume was calculated using the following formula: Volume = (width)^2 × length/2. For the lung metastasis model, 1 × 10^6 LLC or B16 cells in 200 μl PBS were injected intravenously into mice. Mice were euthanized at day 10 after tumor injection for the LLC model and day 5–9 for the B16 model, and the lungs were isolated after perfusion with PBS via the left ventricle. Visible lung metastases were counted in the left lobe. The diameters of metastatic nodules in the lung lobe image were measured using ImageJ software. […]
Cells for flow cytometric analysis were prepared as follows: bone marrow cells were flushed from femurs, followed by incubation with ACK buffer to remove red blood cells. […] After blocking Fc receptors through incubation with an anti-mouse CD16/32 antibody (clone 2.4G2, dilution 1:100, Cat BE0307), cells were stained with fluorescence-labeled anti-mouse monoclonal antibodies. […] Flow cytometry data were obtained using a Gallios flow cytometer (Beckman Coulter) and analyzed with FlowJo software (version 10; FlowJo, LLC). […]

Data set [2] relates to B16 tumor cells. As to the kind of experiment: B16 tumor cell growth (WST-1 assay). It is filed as cell-based. The conditions noted are these: B16, 48 h.
Protocol: (§1) To evaluate the effects of compounds on cell growth, cells were incubated with inhibitors for 48 h, then WST-1 (Dojindo) was added to the culture for the final 30 min. An Envision instrument (PerkinElmer) was used to measure the absorbance of each well at 450 nm versus a 650-nm reference to detect the amount of formazan produced from WST-1 by mitochondrial dehydrogenases in viable cells.
The subject of data set [3] is Lewis lung carcinoma (LLC). As to the kind of experiment: LLC lung metastasis model. In kind it is in vivo, C57BL/6 mice. Conditions: LLC i.v.; DSF 40 mg kg-1 i.p. daily. The method, then:
For evaluating subcutaneous tumor growth, LLC or B16 cells (5 × 10^5) in 50 μl PBS were inoculated subcutaneously into the right flanks of mice. Mice were euthanized when their tumor volumes reached 4000 mm^3. Tumor sizes were measured twice a week using calipers. Tumor volume was calculated using the following formula: Volume = (width)^2 × length/2. For the lung metastasis model, 1 × 10^6 LLC or B16 cells in 200 μl PBS were injected intravenously into mice. Mice were euthanized at day 10 after tumor injection for the LLC model and day 5–9 for the B16 model, and the lungs were isolated after perfusion with PBS via the left ventricle. Visible lung metastases were counted in the left lobe. The diameters of metastatic nodules in the lung lobe image were measured using ImageJ software. […] Anti-PD-1 antibody (clone J43, BioXcell) was injected intraperitoneally at a dose of 200 μg per mouse on day 5, 8, 14, and 18 after tumor inoculation.

Data set [4] has as its target T1, C603S FROUNT (Homo sapiens, UniProt Q9BW27, C603S/L538E/P612S).
T1 construct: 50 µM CRBD of FROUNT (a.a. 532–656) bearing the L538E/P612S mutations or its mutant (C603S); made in house
T1 sequence (Q9BW27 532-656 L538E/C603S/P612S): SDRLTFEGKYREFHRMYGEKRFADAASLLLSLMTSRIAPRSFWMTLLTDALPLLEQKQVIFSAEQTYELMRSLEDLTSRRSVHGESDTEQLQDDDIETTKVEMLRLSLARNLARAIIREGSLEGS
As to the kind of experiment: NMR titration of C603S FROUNT mutant. In kind it is binding. The conditions noted are these: 50 µM DSF, 50 µM mutant. The method, then: All ^1H–^15N heteronuclear single quantum correlation (HSQC) NMR spectra were measured at 25 °C on a Bruker 600-MHz AVANCE III spectrometer with a cryogenic probe. […] The assignments of the backbone ^1H^N and ^15N NMR signals of CRBD were performed, based on the previous paper. […] Combined chemical shift differences Δδ was calculated by Δδ = [(ΔδHN)^2 + (ΔδN/6.5)^2]^1/2, where ΔδHN and ΔδN are the chemical shift differences for ^1H^N and ^15N, respectively.

The subject of data set [5] is PI3K activation in CCR2-expressing Chinese hamster ovary cells. As to the kind of experiment: PH-Akt domain translocation assay. It is filed as cell-based. The conditions noted are these: 25 µM DSF for 30 min. The text has this: CCR2-expressing Chinese hamster ovary cells were transfected with PH-Akt-tHcRed. […] Cells were visualized with confocal microscopy using SP5 (Leica).

Data set [6] deals with LLC tumor cells. Put plainly: LLC tumor cell growth (WST-1 assay). It is filed as cell-based. The conditions noted are these: 48 h.
Protocol: as §1
In data set [7] the test system is THP-1 cells. Put plainly: Cell viability alongside chemotaxis assay. It is filed as cell-based, human. Conditions: at the concentrations tested in chemotaxis.
The target in data set [8] is T2, FROUNT-CCR2 interaction (Homo sapiens, UniProt Q9BW27).
T2 construct: GST-fused FROUNT (FNT-C)
T2 sequence (Q9BW27 500-656 limits assumed): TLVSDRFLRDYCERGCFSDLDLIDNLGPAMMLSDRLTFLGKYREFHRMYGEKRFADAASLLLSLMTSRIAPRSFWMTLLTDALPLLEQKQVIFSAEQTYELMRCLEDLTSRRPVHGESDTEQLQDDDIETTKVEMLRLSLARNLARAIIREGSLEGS
Put plainly: HTRF FROUNT-CCR2 interaction assay. It is filed as binding.

For the compound `CCN(CC)C(=S)SSC(=S)N(CC)CC` [DSF, disulfiram], the “number of tumor-associated monocytes/macrophages” value in data set [1] (day 20 after tumor inoculation) is “reduced”. For the same compound, the subcutaneous tumor growth entry in data set [1] (oral DSF in diet (0.8 mg DSF/1 g CE-2) from 4 days after inoculation) was “inhibited”. In addition, the in vitro growth result in data set [2] and in data set [6] was “no effect” in each case. The “lung metastatic nodule formation” value in data set [3] is “significantly reduced”. The “binding to C603S FROUNT” value in data set [4] is given as “No significant binding”. Besides, the “membrane localization of PH-Akt upon CCL2 stimulation” value in data set [5] is on record as “significantly impaired”. Moreover, the “cytotoxicity (cell viability)” value in data set [7] was “without any cytotoxicity”. The “inhibition of FROUNT-CCR2 interaction” value in data set [8] (HTRF) is “specifically inhibited”. In addition, it took 0.042 µM to reach half-maximal inhibition in data set [8] (HTRF titration assay) (IC50).

(Values after paper PMC6992764 (Nature Communications, 2020).)
